Each molecule was assayed against T1, BaF3 BRAF-KIAA1549 fusion cells (Homo sapiens, UniProt P15056) (assay: BaF3 BRAF-KIAA1549 fusion cell proliferation assay (CellTiterGlo)). Settings: 96 hours incubation, potency code.
T1 construct: The BRAF-KIAA1549 fusion mutant was subcloned into pMXs-IRES-Blasticidin (RTV-016, Cell Biolabs, San Diego, CA); fused on or other part: Q9HCM3 (UPF0606 protein KIAA1549)
Type: cell-based
Experimental: Retroviral Production: The BRAF-KIAA1549 fusion mutant was subcloned into pMXs-IRES-Blasticidin (RTV-016, Cell Biolabs, San Diego, CA). Retrovirus was produced by transfection of HEK 293T cells with the retroviral BRAF mutant expression vector pMXs-IRES-Blasticidin (RTV-016, Cell Biolabs), pCMV-Gag-Pol vector and pCMV-VSV-G-Envelope vector. Briefly, HEK 293T cells were plated in Poly-D-lysine coated 6-well plate (2.5×10^5 cells per well) and incubated overnight. The next day, retroviral plasmids (1 μg of BRAF-KIAA fusion mutant, 0.32 μg of pCMV-Gag-Pol and 0.165 μg pCMV-VSV-G) were mixed in 300 μL of Optimem (31985, Life Technologies). The mixture was incubated at room temperature for 5 minutes and then added to Optimem containing transfection reagent Lipofectamine (11668, Invitrogen) and incubated for 20 minutes. The mixture was then added dropwise to HEK 293T cells. The next day the medium was replaced with fresh culture medium and retrovirus was harvested at 24 hours.
Generation of BRAF-KIAA1549 fusion stable cell line: BaF3 cells were plated in V-bottom 96 well plate (COSTAR #3894) in 80 μL of RPMI/10% FBS and 0.01 ng/ml mouse IL-3; supplemented with 8 μg/mL polybrene (4×10^4 cells/well). Cells were transduced with 20 μL of BRAF-KIAA1549 fusion viral supernatant by centrifuging for 30 minutes at 1000 rpm. Cells were placed in a 37° C. incubator overnight. Next day 100 μL of RPMI/10% FBS and 0.01 ng/ml mouse IL-3 was added. After 24 hours, 100 μL of cells were transferred to a 24 well plate containing 900 μL of RPMI/10% FBS and 15 μg/mL Blasticidin. Contents of the 24 well plate were sampled for cell viability via CellTiterGlo (Promega) over a 2-week period.
Assay for cell proliferation: BaF3 BRAF-KIAA1549 fusion cells were resuspended at 1.5×10^5c/mL in RPMI containing 10% Heat Inactivated FBS, 1% L-glutamine and dispensed in duplicate ([…]) into 384 well plates. To determine the effect of compound on cell proliferation, BaF3 BRAF-KIAA1549 fusion cells were incubated for 96 hours in the presence of vehicle control (DMSO) or compound at varying concentrations. Inhibition of cell growth was determined by luminescent quantification (Envision by Perkin Elmer) of intracellular ATP content using CellTiterGlo (Promega), according to the protocol provided by the manufacturer. To determine the IC50 values, the vehicle-treated cells were normalized as viable cells and analyzed using the CDD Vault, Collaborative Drug Discovery, Burlingame, CA (the Levenberg-Marquardt algorithm; Levenberg, K., […]; Marquardt, D., 1963).
Tables A1 and A2 assign each compound a code for potency in the BaF3 BRAF-KIAA1549 fusion cell proliferation assay: A, B, C, or D. According to the code, A represents an IC50 value <20 nM; B represents an IC50 value ≥20 nM and <100 nM; C represents an IC50 value ≥100 nM and <500 nM; and D represents an IC50 value ≥500 nM.

T1 sequence (P15056 whole entry, change not shown, the tested form may be a part): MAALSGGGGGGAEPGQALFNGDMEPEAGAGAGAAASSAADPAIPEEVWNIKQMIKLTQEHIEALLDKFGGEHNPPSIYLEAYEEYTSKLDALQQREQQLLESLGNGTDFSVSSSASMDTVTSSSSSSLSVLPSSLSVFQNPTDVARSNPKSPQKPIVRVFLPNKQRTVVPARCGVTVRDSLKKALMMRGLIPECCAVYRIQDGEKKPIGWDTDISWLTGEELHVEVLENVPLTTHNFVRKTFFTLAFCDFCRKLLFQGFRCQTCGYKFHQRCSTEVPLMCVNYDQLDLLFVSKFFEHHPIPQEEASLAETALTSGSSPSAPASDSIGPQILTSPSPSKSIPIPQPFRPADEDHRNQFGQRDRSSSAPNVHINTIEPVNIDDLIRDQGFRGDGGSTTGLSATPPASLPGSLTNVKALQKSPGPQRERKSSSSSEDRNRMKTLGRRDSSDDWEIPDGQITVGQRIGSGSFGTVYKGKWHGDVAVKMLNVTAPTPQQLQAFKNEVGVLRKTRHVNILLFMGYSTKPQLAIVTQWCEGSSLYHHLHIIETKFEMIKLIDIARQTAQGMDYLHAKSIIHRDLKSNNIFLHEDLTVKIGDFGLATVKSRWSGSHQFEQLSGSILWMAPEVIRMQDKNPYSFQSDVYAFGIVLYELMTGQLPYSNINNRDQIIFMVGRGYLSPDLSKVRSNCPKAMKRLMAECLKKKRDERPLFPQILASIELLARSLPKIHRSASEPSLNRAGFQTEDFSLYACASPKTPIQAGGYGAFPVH

Row | SMILES | GI50
1 | Cc1ccc(NC(=O)c2ccc(Cl)c(C#N)c2)cc1Nc1ncccc1-c1ncnc2[nH]cnc12 [Compound I-22, N-(3-((3-(9H-purin-6-yl)pyridin-2-yl)amino)-4-methylphenyl)-4-chloro-3-cyanobenzamide] | < 20 nM
2 | Cc1ccc(NC(=O)c2cccc(C(C)(C)C#N)c2)nc1Nc1ncccc1-c1ncnc2[nH]cnc12 [Compound I-57, N-(6-((3-(9H-purin-6-yl)pyridin-2-yl)amino)-5-methylpyridin-2-yl)-3-(2-cyanopropan-2-yl)benzamide] | ≥ 500 nM
3 | Cc1ccc(NC(=O)c2cc(C(F)(F)F)c(OC3COC3)cn2)cc1Nc1ncccc1-c1ncnc2[nH]cnc12 [IA-95, N-(3-(3-(9H-purin-6-yl)pyridin-2-ylamino)-4-methylphenyl)-5-(oxetan-3-yloxy)-4-(trifluoromethyl)picolinamide] | < 20 nM
4 | Cc1ccc(NC(=O)c2ncc(C)c(C(F)(F)F)c2F)cc1Nc1ncccc1-c1ncnc2[nH]cnc12 [IA-91, N-(3-(3-(9H-purin-6-yl)pyridin-2-ylamino)-4-methylphenyl)-3-fluoro-5-methyl-4-(trifluoromethyl)picolinamide] | 20 to 100 nM
5 | Cc1ncc(C(=O)Nc2cccc(C3(C#N)CC3)c2)cc1Nc1ncccc1-c1ncnc2[nH]cnc12 [Compound I-58, 5-((3-(9H-purin-6-yl)pyridin-2-yl)amino)-N-(3-(1-cyanocyclopropyl)phenyl)-6-methylnicotinamide] | 20 to 100 nM
6 | Cc1ccc(NC(=O)C[C@@H]2CCC[C@H](C(F)(F)F)C2)cc1Nc1ncccc1-c1ncnc2[nH]cnc12 (single isomer, unassigned) [IA-138] | < 20 nM
7 | COc1cc(C(=O)Nc2ccc(C)c(Nc3ncccc3-c3ncnc4[nH]cnc34)c2)ccc1Cl [Compound I-41, N-(3-((3-(9H-purin-6-yl)pyridin-2-yl)amino)-4-methylphenyl)-4-chloro-3-methoxybenzamide] | < 20 nM
8 | Cc1ccc(NC(=O)CC2CCCCOC2)cc1Nc1ncccc1-c1ncnc2[nH]cnc12 (stereo not drawn) [IA-99, N-(3-(3-(9H-purin-6-yl)pyridin-2-ylamino)-4-methylphenyl)-2-(oxepan-3-yl)acetamide] | 20 to 100 nM
9 | Cc1ccc(NC(=O)c2cc(C(F)F)c(C)cn2)cc1Nc1ncccc1-c1ncnc2[nH]cnc12 [IA-90, N-(3-((3-(9H-purin-6-yl)pyridin-2-yl)amino)-4-methylphenyl)-4-(difluoromethyl)-5-methylpicolinamide] | 20 to 100 nM
10 | Cc1ncc(NC(=O)c2ccc(Cl)c(C#N)c2)cc1Nc1ncccc1-c1ncnc2[nH]cnc12 [Compound I-40, N-(5-((3-(9H-purin-6-yl)pyridin-2-yl)amino)-6-methylpyridin-3-yl)-4-chloro-3-cyanobenzamide] | ≥ 500 nM
11 | Cc1ccc(NC(=O)c2cc(C3CC3)c(Cl)cn2)cc1Nc1ncccc1-c1ncnc2[nH]cnc12 [Compound I-56, N-(3-((3-(9H-purin-6-yl)pyridin-2-yl)amino)-4-methylphenyl)-5-chloro-4-cyclopropylpicolinamide] | ≥ 500 nM
12 | Cc1c(F)cc(NC(=O)c2cc(C(F)(F)F)ccn2)cc1Nc1ncccc1-c1ncnc2[nH]cnc12 [Compound I-29, N-(3-(3-(9H-purin-6-yl)pyridin-2-ylamino)-5-fluoro-4-methylphenyl)-4-(trifluoromethyl)picolinamide] | 20 to 100 nM
13 | Cc1ccc(NC(=O)c2cc(C(F)(F)F)ccn2)cc1Nc1nccc(F)c1-c1ncnc2[nH]cnc12 [IA-117, N-(3-(4-fluoro-3-(9H-purin-6-yl)pyridin-2-ylamino)-4-methylphenyl)-4-(trifluoromethyl)picolinamide] | 100 to 500 nM
14 | Cc1nc2c(-c3cccnc3Nc3cc(NC(=O)c4ccnc(C(C)(C)C#N)c4)ccc3C)ncnc2[nH]1 [IA-127, 2-(2-cyanopropan-2-yl)-N-(4-methyl-3-((3-(8-methyl-9H-purin-6-yl)pyridin-2-yl)amino)phenyl)isonicotinamide] | < 20 nM
15 | Cc1ccc(NC(=O)CC2CCCOCC2)cc1Nc1ncccc1-c1ncnc2[nH]cnc12 (stereo not drawn) [IA-102, N-(3-(3-(9H-purin-6-yl)pyridin-2-ylamino)-4-methylphenyl)-2-(oxepan-4-yl)acetamide] | 100 to 500 nM
16 | CCc1cnc(C(=O)Nc2ccc(C)c(Nc3ncccc3-c3ncnc4[nH]cnc34)c2)cc1C(F)(F)F [IA-92, N-(3-(3-(9H-purin-6-yl)pyridin-2-ylamino)-4-methylphenyl)-5-ethyl-4-(trifluoromethyl)picolinamide] | 20 to 100 nM
17 | CCc1ccc(NC(=O)c2cc(C(F)(F)F)ccn2)cc1Nc1ncccc1-c1ncnc2[nH]cnc12 [Compound I-68, N-(3-((3-(9H-purin-6-yl)pyridin-2-yl)amino)-4-ethylphenyl)-4-(trifluoromethyl)picolinamide] | 20 to 100 nM
18 | Cc1cnc(C(=O)Nc2ccc(C)c(Nc3ncccc3-c3ncnc4[nH]cnc34)c2)cc1C#N [Compound I-71, N-(3-((3-(9H-purin-6-yl)pyridin-2-yl)amino)-4-methylphenyl)-4-cyano-5-methylpicolinamide] | 20 to 100 nM
19 | Cc1ccc(NC(=O)c2cccc(N(C)C)c2)cc1Nc1ncccc1-c1ncnc2[nH]cnc12 [Compound I-80, N-(3-((3-(9H-purin-6-yl)pyridin-2-yl)amino)-4-methylphenyl)-3-(dimethylamino)benzamide] | < 20 nM
20 | Cc1ccc(NC(=O)c2ccnc(C3COC3)c2)cc1Nc1ncccc1-c1ncnc2[nH]cnc12 [Compound I-32, N-(3-((3-(9H-purin-6-yl)pyridin-2-yl)amino)-4-methylphenyl)-2-(oxetan-3-yl)isonicotinamide] | < 20 nM
21 | Cc1ccc(NC(=O)C23CC(Cl)(C2)C3)cc1Nc1ncccc1-c1ncnc2[nH]cnc12 [Compound I-28, N-(3-(3-(9H-purin-6-yl)pyridin-2-ylamino)-4-methylphenyl)-3-chlorobicyclo[1.1.1]pentane-1-carboxamide] | ≥ 500 nM
22 | Cc1ccc(NC(=O)c2cccc(C(F)(F)F)c2)cc1Nc1ncccc1-c1ncnc2[nH]cnc12 [IA-145, N-(3-((3-(9H-purin-6-yl)pyridin-2-yl)amino)-4-methylphenyl)-3-(trifluoromethyl)benzamide] | < 20 nM
23 | O=C(Nc1ccc(F)c(Nc2ncccc2-c2ncnc3[nH]cnc23)c1)c1cc(C(F)(F)F)ccn1 [Compound I-20] | 20 to 100 nM
24 | Cc1ncc(NC(=O)c2ccnc(C3(F)CC3)c2)cc1Nc1ncccc1-c1ncnc2[nH]cnc12 [Compound I-61, N-(5-((3-(9H-purin-6-yl)pyridin-2-yl)amino)-6-methylpyridin-3-yl)-2-(1-fluorocyclopropyl)isonicotinamide] | 20 to 100 nM
25 | Cc1ccc(NC(=O)C[C@H]2CCO[C@@H](C(F)(F)F)C2)cc1Nc1ncccc1-c1ncnc2[nH]cnc12 (single isomer, unassigned) [IA-146] | 20 to 100 nM
26 | Cc1ccc(NC(=O)CC2CCCN(C)CC2)cc1Nc1ncccc1-c1ncnc2[nH]cnc12 (stereo not drawn) [IA-132, N-(3-(3-(9H-purin-6-yl)pyridin-2-ylamino)-4-methylphenyl)-2-(1-methylazepan-4-yl)acetamide] | ≥ 500 nM
27 | Cc1ccc(NC(=O)CN2CCC[C@@H](C(F)(F)F)C2)cc1Nc1ncccc1-c1ncnc2[nH]cnc12 [IA-107, (R)—N-(3-((3-(9H-purin-6-yl)pyridin-2-yl)amino)-4-methylphenyl)-2-(3-(trifluoromethyl)piperidin-1-yl)acetamide] | < 20 nM

Reference: patent publication US20240317752A1, “6-SUBSTITUTED-9H-PURINE DERIVATIVES AND RELATED USES” (Black Diamond Therapeutics, Inc., priority 2021, published 2024)
